Read-outs that look alike come from different tables or passages of the source.
Key:
[1] = test system: cortisol levels; conditions: horses; after aerosol administration; cited from earlier work
[2] = test system: cortisol levels; conditions: humans; after aerosol administration/inhalation; cited from earlier work
[3] = test system: segmented neutrophils and lymphocytes; assay: Moldy hay challenge study in RAO horses: segmented neutrophil and lymphocyte counts; assay type: in vivo, horse; conditions: for Lymphocytes count after administration / Segmented neutrophil count after administration: dexamethasone 0.066 mg/kg per os once daily
Experimental: (§1) The commercially available […]® is used in the study.
The segmented neutrophil counts and the lymphocyte counts are determined in the studies above: ciclesonide treatment versus dexamethasone treatment.

[4] = test system: RAO horses; assay: Moldy hay challenge study in RAO horses: lung function variables (transpulmonary pressure, lung resistance, lung elastance); assay type: in vivo, horse; conditions: dexamethasone 0.066 mg/kg per os once daily, after 14 days
Text: as §1

[5] = when taken orally; cited from earlier work
[6] = test system: RAO horses; assay: Moldy hay challenge study in RAO horses: clinical score (breathing effort score, weighted clinical score); assay type: in vivo, horse; conditions: dexamethasone 0.066 mg/kg per os once daily
Text: as §1

Row | SMILES | Measured cortisol levels [1] | Measured cortisol levels [2] | Lymphocytes count after administration ([3]; 1st ciclesonide study) | Segmented neutrophil count after administration ([3]; 1st ciclesonide study) | Lymphocytes count after administration ([3]; 2nd ciclesonide study) | Segmented neutrophil count after administration ([3]; 2nd ciclesonide study) | Neutrophilia and lymphopenia ([3]; after treatment with dexamethasone, 1st and 2nd ciclesonide studies (Table 2)) | All lung function variables compared to pretreatment values ([4]; 1st ciclesonide study, p<0.0001) | All lung function variables compared to pretreatment values ([4]; 2nd ciclesonide study, p=0.0009 to p<0.0001) | All lung function variables compared to pretreatment values ([4]; Budesonide study, p≤0.0001) | Potency relative to prednisone [5] | Potency relative to the naturally occurring hormone cortisol [5] | Breathing effort score ([6]; 1st ciclesonide study, any measured time point) | Weighted clinical score compared to pretreatment values ([6]; 2nd ciclesonide study, after 14 days, p=0.0001 to p<0.0001) | Clinical score compared to pretreatment values ([6]; Budesonide study, after 7 and 14 days, p=0.002 to p<0.0001)
1 | C[C@@H]1C[C@H]2[C@@H]3C[C@H](F)C4=CC(=O)C=C[C@]4(C)[C@@]3(F)[C@@H](O)C[C@]2(C)[C@@]1(O)C(=O)SCF [fluticasone] | significant suppression | significant suppression |  |  |  |  |  |  |  |  |  |  |  |  | 
2 | C[C@@H]1C[C@H]2[C@@H]3CCC4=CC(=O)C=C[C@]4(C)[C@@]3(F)[C@@H](O)C[C@]2(C)[C@@]1(O)C(=O)CO [dexamethasone] |  |  | decreased | increased | decreased | increased | commonly observed | significantly reduced | significantly reduced | significantly reduced | 7 times | 27 times | no significant changes | significantly reduced | significantly reduced

— US10441597B2, “Ciclesonide for the treatment of airway disease in horses” (Boehringer Ingelheim Vetmedica GmbH, priority 2012, dated 2019)
